Source: ChEMBL document CHEMBL6153074, “Discovery of novel dual tubulin and MMPs inhibitors for the treatment of lung cancer and overcoming drug resistance” (Eur J Med Chem, 2025)
Activity calls are given as the source filed them. The rule behind the calls is not given here.

Assays:
[1] = Antiproliferative activity against human MCF-10A cells by CCK8 assay; assay type: toxicity, cell-based
Tubulin (Homo sapiens) [2] = target: T1, Tubulin (Homo sapiens) (UniProt P68371+Q9H4B7+P0DPH7+P68366+Q13509+Q71U36+P04350+Q3ZCM7+P07437+P68363+Q9BQE3+Q6PEY2+Q13885+Q9BVA1+Q9BUF5); assay: Disruption of microtubule network in human A549 cells assessed as contraction towards cell border at 2.5 to 5 uM incubated for 24 hrs by immunofluorescence based analysis; conditions: dose 2.5-5 µM
A549 [3] = assay: Induction of cell cycle arrest in human A549 cells assessed as accumulation at G2 phase at 0.5 uM incubated for 24 hrs by PI staining based flow cytometry (reference value: 3.37 %); assay type: functional
Tubulin (Homo sapiens) [4] = target: T1, Tubulin (Homo sapiens); assay: Disruption of microtubule network in human A549 cells assessed as cell disorganisation at 2.5 to 5 uM incubated for 24 hrs by immunofluorescence based analysis; conditions: dose 2.5-5 µM
[5] = Stability of compound in PBS at pH 7.4 measured for 24 to 72 hrs; assay type: physicochemical; conditions: buffer, time 24-72 hrs
[6] = Stability of compound in DMEM containing 1 percent DMF at pH 7.4 measured for 24 to 72 hrs; assay type: physicochemical; conditions: buffer, time 24-72 hrs
A549 [7] = assay: Induction of cell cycle arrest in human A549 cells assessed as decrease in cdc2 by Western blot analysis; assay type: functional, cell-based
A549 [8] = assay: Induction of apoptosis in human A549 cells assessed as viable cells at 0.25 uM incubated for 24 hrs by Annexin V-FITC/PI staining based flow cytometry (reference value: 95.82 %); assay type: functional; conditions: read-out: Activity
NCI-H460 = assay: Antiproliferative activity against human NCI-H460 cells by CCK8 assay
A549 [9] = assay: Induction of intracellular ROS accumulation in human A549 cells at 0.5 uM incubated for 24 hrs by DCFH-DA dye based flow cytometry (reference value: 4.96 %); assay type: functional
A549 [10] = assay: Induction of cell cycle arrest in human A549 cells assessed as decrease in cdc25c by Western blot analysis; assay type: functional, cell-based
A549 [11] = assay: Induction of apoptosis in human A549 cells assessed as necrotic cells at 0.5 uM incubated for 24 hrs by Annexin V-FITC/PI staining based flow cytometry (reference value: 0.13 %); assay type: functional
A549 [12] = assay: Induction of cell cycle arrest in human A549 cells assessed as accumulation at G1 phase at 0.25 uM incubated for 24 hrs by PI staining based flow cytometry (reference value: 58.67 %); assay type: functional
A549 [13] = assay: Induction of apoptosis in human A549 cells assessed as necrotic cells at 0.25 uM incubated for 24 hrs by Annexin V-FITC/PI staining based flow cytometry (reference value: 0.13 %); assay type: functional
A549 [14] = assay: Induction of intracellular ROS accumulation in human A549 cells assessed as increase in green fluorescence incubated for 24 hrs by DCFH-DA dye based confocal microscopy; assay type: functional, cell-based
Stromelysin-1 = Stromelysin-1 (Homo sapiens, UniProt P08254); assay: Inhibition of MMP-3 (unknown origin) using fluorogenic-McaPro-Leu-Gly-Leu-Dpa-Ala-Arg-NH2 as substrate
Stromelysin-1, sequence (P08254 whole entry): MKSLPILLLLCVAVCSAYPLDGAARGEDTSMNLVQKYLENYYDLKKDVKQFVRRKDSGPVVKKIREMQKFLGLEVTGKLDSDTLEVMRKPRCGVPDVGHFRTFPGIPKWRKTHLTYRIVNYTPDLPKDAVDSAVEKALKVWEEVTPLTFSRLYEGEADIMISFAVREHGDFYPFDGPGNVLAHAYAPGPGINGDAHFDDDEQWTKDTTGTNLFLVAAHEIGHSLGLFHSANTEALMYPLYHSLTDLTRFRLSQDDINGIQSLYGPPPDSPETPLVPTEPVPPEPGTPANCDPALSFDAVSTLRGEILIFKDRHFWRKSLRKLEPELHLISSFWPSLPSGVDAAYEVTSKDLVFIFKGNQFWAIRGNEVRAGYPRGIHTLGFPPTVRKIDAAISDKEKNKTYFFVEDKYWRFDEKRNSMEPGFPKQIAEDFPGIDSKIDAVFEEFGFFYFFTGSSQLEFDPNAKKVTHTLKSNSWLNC

MCF7 = assay: Antiproliferative activity against human MCF7 cells by CCK8 assay
[15] = Toxicity in BALB/c mouse xenografted with human A549 cells assessed as effect on heart at 10 to 20 mg/kg, ip for 3 weeks administered on every 2 days by H and E staining based analysis; assay type: organism-based; conditions: in vivo, 504 h, dose 10-20 mg/kg
A549 [16] = assay: Induction of apoptosis in human A549 cells assessed as viable cells at 0.5 uM incubated for 24 hrs by Annexin V-FITC/PI staining based flow cytometry (reference value: 95.82 %); assay type: functional; conditions: read-out: Activity
A549 [17] = assay: Induction of apoptosis in human A549 cells assessed as decrease in Bcl-2 level at 0.5 uM incubated for 24 hrs by Western blot analysis; assay type: functional, cell-based
A549 [18] = assay: Induction of cell cycle arrest in human A549 cells assessed as accumulation at S phase at 0.5 uM incubated for 24 hrs by PI staining based flow cytometry (reference value: 37.95 %); assay type: functional
A549 [19] = assay: Induction of mitochondrial fragmentation in human A549 cells assessed as increase in green fluorescence at 0.5 uM incubated for 24 hrs by JC-1 dye based analysis; assay type: functional, cell-based
A549 [20] = assay: Antitumor activity against human A549 cells xenografted in BALB/c mouse at 10 mg/kg, ip for 3 weeks administered on every 2 days relative to control; assay type: functional; conditions: A549, 504 h, read-out: TGI
A549 [21] = assay: Induction of mitochondrial membrane potential loss in human A549 cells at 0.25 uM incubated for 24 hrs by JC-1 dye based analysis (reference value: 3.14 %); assay type: functional
A549 [22] = assay: Induction of cell cycle arrest in human A549 cells assessed as accumulation at G2 phase at 0.25 uM incubated for 24 hrs by PI staining based flow cytometry (reference value: 3.37 %); assay type: functional
Tubulin (Homo sapiens) [23] = target: T1, Tubulin (Homo sapiens); assay: Inhibition of tubulin polymerization (unknown origin) incubated for 65 mins by fluorescence based analysis; assay type: protein-complex assay; conditions: dose 0.625-20 µM
A549 [24] = assay: Downregulation of NF-kappaB p65 phosphorylation in TNF-alpha-treated human A549 cells by Western blot analysis; assay type: functional, cell-based
A549 [25] = assay: Antitumor activity against human A549 cells xenografted in BALB/c mouse assessed as decrease in Ki67 level at 20 mg/kg, ip for 3 weeks administered on every 2 days by IHC analysis; assay type: functional, organism-based
A549 [26] = assay: Antitumor activity against human A549 cells xenografted in BALB/c mouse at 20 mg/kg, ip for 3 weeks administered on every 2 days relative to control; assay type: functional; conditions: A549, 504 h, read-out: TGI
[27] = Toxicity in BALB/c mouse xenografted with human A549 cells assessed as effect on spleen at 10 to 20 mg/kg, ip for 3 weeks administered on every 2 days by H and E staining based analysis; assay type: organism-based; conditions: in vivo, 504 h, dose 10-20 mg/kg
A549 [28] = assay: Induction of mitochondrial membrane potential loss in human A549 cells at 0.5 uM incubated for 24 hrs by JC-1 dye based analysis (reference value: 3.14 %); assay type: functional
[29] = Toxicity in BALB/c mouse xenografted with human A549 cells assessed as effect on lung at 10 to 20 mg/kg, ip for 3 weeks administered on every 2 days by H and E staining based analysis; assay type: organism-based; conditions: in vivo, 504 h, dose 10-20 mg/kg
[30] = Toxicity in BALB/c mouse xenografted with human A549 cells assessed as body weight loss at 10 to 20 mg/kg, ip for 3 weeks administered on every 2 days; assay type: organism-based; conditions: in vivo, 504 h, dose 10-20 mg/kg
A549 [31] = assay: Induction of cell cycle arrest in human A549 cells assessed as accumulation at S phase at 0.25 uM incubated for 24 hrs by PI staining based flow cytometry (reference value: 37.95 %); assay type: functional
A549 [32] = assay: Induction of apoptosis in human A549 cells assessed as late apoptotic cells at 0.5 uM incubated for 24 hrs by Annexin V-FITC/PI staining based flow cytometry (reference value: 1.01 %); assay type: functional
A549 [33] = assay: Induction of intracellular ROS accumulation in human A549 cells at 0.25 uM incubated for 24 hrs by DCFH-DA dye based flow cytometry (reference value: 4.96 %); assay type: functional
[34] = Antiproliferative activity against human L02 cells by CCK8 assay; assay type: toxicity, cell-based
A549 [35] = assay: cells; conditions: Homo sapiens
Description: Antiproliferative activity against human A549 cells by CCK8 assay

- Activity (Tubulin (Homo sapiens) [2]): Active
- Activity (Tubulin (Homo sapiens) [4]): Active
- Stability [5]: Stable
- Stability [6]: Stable
- IC50 (NCI-H460): 0.186 µM
- IC50 (Stromelysin-1): 36.5 µM
- IC50 (MCF7): 0.253 µM
- inhibition (Tubulin (Homo sapiens) [23]): Dose-dependent-effect
- IC50 (A549 [35]): 0.154 µM
SMILES: CCOP(=O)(OCC)C(Nc1ccc(CC(=O)Oc2cc(/C=C/C(=O)c3cc(OC)c(OC)c(OC)c3)ccc2OC)cc1)c1cccc([N+](=O)[O-])c1 (stereo not drawn)
- IC50 [1]: 2.71 µM
- Activity (A549 [3]): 81.23%
- Activity (A549 [7]): Active
- viability at 0.25 µM (A549 [8]): 79.9%
- Activity (A549 [9]): 70.79%
- Activity (A549 [10]): Active
- Activity (A549 [11]): 0.93%
- Activity (A549 [12]): 42.09%
- Activity (A549 [13]): 0.3%
- Activity (A549 [14]): Active
- Activity [15]: Non-toxic
- viability at 0.5 µM (A549 [16]): 57.9%
- Activity (A549 [17]): Active
- Activity (A549 [18]): 3.19%
- Activity (A549 [19]): Active
- inhibition in vivo at 10 mg/kg (A549 [20]): 53.3%
- Activity (A549 [21]): 27.19%
- Activity (A549 [22]): 37.79%
- Activity (A549 [24]): Active
- Activity (A549 [25]): Active
- inhibition in vivo at 20 mg/kg (A549 [26]): 74.7%
- Activity [27]: Non-toxic
- Activity (A549 [28]): 56.15%
- Activity [29]: Non-toxic
- Activity [30]: Non-toxic
- Activity (A549 [31]): 20.12%
- Activity (A549 [32]): 6.34%
- Activity (A549 [33]): 36.07%
- IC50 [34]: 2.21 µM
